Results taken from patent US5736356A, “Transglutaminase originating from Crassostrea gigas” (Ajinomoto Co., Inc., priority 1994, dated 1998).
Entries after “also recorded” stand apart in the source; their conditions may differ. Where two headings read alike, the source gives them in different places. Residues, ends and D or L forms follow the SMILES beside them. No end group written: not given here. *: point of attachment. Cbz = O=C(OCc1ccccc1)*

What was measured:
[1] = molecular target: T1, purified transglutaminase originating from Crassostrea gigas (Magallana gigas, UniProt A0A8W8K4D7); assay type: biochemical; conditions: final concentration 1 mM; for Residual Activity: treated at 25° C. for 10 minutes, reaction 37° C. 30 minutes
T1 construct: Met-less mature form starts […]; recombinant enzyme from E. coli or yeast reported equivalent
T1 sequence (A0A8W8K4D7 entry or part of it with the stated changes): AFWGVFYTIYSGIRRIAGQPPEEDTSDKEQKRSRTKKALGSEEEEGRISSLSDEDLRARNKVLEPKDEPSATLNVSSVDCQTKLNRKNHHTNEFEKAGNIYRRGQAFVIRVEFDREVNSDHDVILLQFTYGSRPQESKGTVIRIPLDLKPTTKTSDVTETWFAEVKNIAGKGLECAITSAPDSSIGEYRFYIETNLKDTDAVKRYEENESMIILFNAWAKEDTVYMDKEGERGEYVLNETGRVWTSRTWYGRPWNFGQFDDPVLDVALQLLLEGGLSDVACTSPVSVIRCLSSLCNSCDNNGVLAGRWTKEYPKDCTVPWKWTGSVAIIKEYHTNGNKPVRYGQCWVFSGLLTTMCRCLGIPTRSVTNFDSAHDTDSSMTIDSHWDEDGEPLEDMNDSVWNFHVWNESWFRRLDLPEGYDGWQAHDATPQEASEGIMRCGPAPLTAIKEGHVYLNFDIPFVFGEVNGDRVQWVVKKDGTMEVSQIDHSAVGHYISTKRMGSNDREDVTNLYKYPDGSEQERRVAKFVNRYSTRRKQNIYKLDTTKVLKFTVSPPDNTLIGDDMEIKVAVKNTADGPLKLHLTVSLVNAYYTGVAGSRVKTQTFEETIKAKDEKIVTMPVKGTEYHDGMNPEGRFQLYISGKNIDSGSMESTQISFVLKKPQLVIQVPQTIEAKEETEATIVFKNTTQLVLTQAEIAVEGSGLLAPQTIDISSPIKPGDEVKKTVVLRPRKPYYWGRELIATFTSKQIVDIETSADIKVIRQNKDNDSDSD
Description: The activity of the transglutaminase is determined by reacting the enzyme with dimethylated casein and monodansylcadaverine as substrates and measuring an increase in the fluorescent intensity of casein due to the incorporation of monodansylcadaverine into the dimethylated casein. The composition of the reaction solution is as follows:
To 2.4 ml of the foregoing reaction solution, there is added 20 to 50 μl of the transglutaminase solution followed by carrying out the reaction at 37° C. for 30 min, terminating the reaction by addition of 100 μl of a 500 mM EDTA solution and then determining the fluorescent intensity of the reaction solution (using a device: RF-1500 available from Shimadzu Corporation; excitation wavelength: 350 nm; wavelength of emitted fluorescent rays: 480 nm). In respect of the unit of the activity, that required for increasing the fluorescent intensity by 1.0 within one minute is herein defined to be one unit.
The purified transglutaminase was treated at a temperature of 25° C. for 10 minutes while adding each of a variety of enzyme activity-inhibitory agents and each metal ion in such an amount that the final concentration thereof was equal to 1 mM and then the reaction was carried out at a temperature of 37° C. for 30 minutes using dimethylated casein and monodansylcadaverine as substrates.

[2] = molecular target: T1, purified transglutaminase originating from Crassostrea gigas; assay type: biochemical; conditions: synthetic substrate and hydroxylamine
Excerpt: The inventors have investigated the enzyme activity of the purified transglutaminase using a variety of synthetic substrates and hydroxylamine.

Row | Molecule | enzyme activity-inhibitory effect (in words) [1] | Residual Activity [1] | enzyme activity with synthetic substrate (in words) [2] | further results
1 | O=C(O)CI [Monoiodoacetic Acid] | high enzyme activity-inhibitory effect |  |  | enzyme activity-inhibitory effect (in words) ([1]; listed as momoiodo acetic acid): inhibited
2 | [Pb+2] [Pb^2+] | strongly inhibited the enzyme activity | 55.5% |  | 
3 | CBZ-Gln-Gln-Gly: synthetic substrate (Cbz-Gln-Gln-Gly) |  |  | catalyzed the reaction | 
4 | [Sr+2] [Sr^2+] | almost no enzyme activity-inhibitory effect | 93.8% |  | 
5 | NC(=O)CC[C@H](NC(=O)OCc1ccccc1)C(=O)NCC(=O)O [CBZ-Gln-Gly, benzyloxycarbonyl glutaminyl glycine] (Cbz-Gln-Gly-OH) |  |  | catalyzed the reaction | enzyme activity with synthetic substrate (in words) ([2]; listed as benzyloxycarbonyl glutaminyl glycine): showed the enzyme activity
6 | [Zn+2] [Zn^2+] |  | 65.0% |  | 
7 | [Ni+2] [Ni^2+] |  | 67.9% |  | 
8 | NC(=O)C[C@H](NC(=O)OCc1ccccc1)C(=O)NCC(=O)O [CBZ-Asn-Gly, benzyloxycarbonyl asparaginyl glycine] (Cbz-Asn-Gly-OH) |  |  | did not catalyze the reaction | enzyme activity with synthetic substrate (in words) ([2]; listed as benzyloxycarbonyl asparaginyl glycine): did not show any enzyme activity
9 | CCOC(=O)CNC(=O)[C@H](CCC(N)=O)NC(=O)OCc1ccccc1 [CBZ-Gln-Gly-OEt] (Cbz-Gln-Gly-OEt) |  |  | catalyzed the reaction | 
10 | glycyl glutamyl glycine [Gly-Gln-Gly] |  |  | did not catalyze the reaction | enzyme activity with synthetic substrate (in words) ([2]; listed as glycyl glutamyl glycine): did not show any enzyme activity
11 | CCN1C(=O)C=CC1=O [N-Ethylmaleimide] | high enzyme activity-inhibitory effect; also recorded: inhibited |  |  | 
12 | [Co+2] [Co^2+] | strongly inhibited the enzyme activity | 54.3% |  | 
13 | CBZ-Gly- Gly-Gln-Gly: synthetic substrate, SEQ ID NO: 143 (Cbz-GGQG) |  |  | catalyzed the reaction | 
14 | [Mg+2] [Mg^2+] | almost no enzyme activity-inhibitory effect | 98.2% |  | 
15 | NC(=O)CC[C@H](NC(=O)OCc1ccccc1)C(=O)O [CBZ-Gln, benzyloxycarbonyl glutamine] |  |  | did not catalyze the reaction | enzyme activity with synthetic substrate (in words) ([2]; listed as benzyloxycarbonyl glutamine): did not show any enzyme activity
16 | O=S(=O)(F)Cc1ccccc1 [Phenylmethylsulfone Fluoride] | almost no enzyme activity-inhibitory effect | 96.4% |  | 
17 | O=C(O)c1cc[c]([Hg][Cl])cc1 [p-Chloromercuribenzoic Acid] | high enzyme activity-inhibitory effect; also recorded: inhibited | 10.5% |  | 
18 | [Mn+2] [Mn^2+] |  | 84.7% |  | 
19 | [Ba+2] [Ba^2+] | almost no enzyme activity-inhibitory effect | 102% |  | 
20 | [Cu+2] [Cu^2+] | strongly inhibited the enzyme activity; also recorded: extremely high; also recorded: inhibited | 8.8% |  | 
